Measurements as given in US9975860B2, “Anti-angiogenic compounds” (UNIVERSITY COLLEGE DUBLIN—NATIONAL UNIVERSITY OF IRELAND, …, priority 2014, dated 2018).
Entries after “also recorded” stand apart in the source; their conditions may differ.

Legend:
[1] = system: primary hyaloid vessels in zebrafish; test: Quantification of primary hyaloid vasculature branch number in Tg(fli1:EGFP) zebrafish; type: in vivo
Experimental: All experiments were carried out under ethical approval granted by the UCD animal research ethics committee. Tg(fli1:EGFP) zebrafish were maintained according to standard procedures on a 14 hr light/10 hr dark cycle at 28° C. Embryos were obtained by natural spawning and developmental stages established by time and morphological criteria. At 48 hours post fertilisation (hpf), 5 embryos per well were placed in 400 μl of Embryo Medium/0.1% DMSO and incubated with compound (typically, 10 μM) at 28° C. on a 14 h light/10 h dark cycle. At 5 days post fertilisation (dpf), larvae were euthanised, and fixed in 4% PFA at 4° C. overnight before analysis.
Prior to analysis of the intraocular vasculature, the control and treated larvae were observed under an Olympus SZX16 stereo zoom microscope and screened for general malformations. Overall patterning of the vasculature (fin, gut and intersegmental vessels) was examined for abnormalities. Right lenses were dissected from the larvae and transferred to depression slides for observation under epi-fluorescence in the Olympus SZX16. Patterning of the hyaloid vessels on the treated larval lenses was compared to 0.1% DMSO controls and the archetypal pattern previously described (Alvarez et al., 2007; Alvarez et al., 2009). The number of primary vessels radiating from the back of the lens (3-4 main branches at 5 dpf in controls and previously described), was counted and the average number was graphed for each drug.
(§1) All experimental protocols were carried out as per example 1 and 2. Briefly, zebrafish larvae were treated with 10 μM of AT-051/41206012 (chemical name 2-[2-(2-methoxyphenyl)ethenyl]pyrazine) purchased from Specs (The Netherlands). At 6 or 48 hours post fertilisation (hpf), 5 embryos per well were placed in 400 μl of Embryo Medium/0.1% DMSO and incubated with 10 μM AT-051/41206012 at 28° C. on a 14 h light/10 h dark cycle. Larvae were treated from 6-48 hpf (intersegmental vessel study) or from 48 to 120 hpf (primary hyaloid vessel study). At the end of the study, larvae were euthanized and fixed in 4% PFA at 4° C. overnight before analysis.
(§2) The number of intersegmental vessels was counted and the average number was graphed for each drug. Right lenses were dissected from the larvae and transferred to depression slides for observation and the number of primary hyaloid vessels radiating from the back of the lens (3-4 main branches at 5 dpf in controls and previously described), was counted and the average number was graphed for each drug.

mouse aortic ring = test: Ex vivo mouse aortic ring assay (sprout formation); conditions: 10 μM; C57/BL6 mouse aortic rings in matrigel; vs 0.1% DMSO; hydrochloride
Experimental: Aortae from sex matched C57/BL6 littermates were cleansed of adipose tissue, cut into 2 mm rings and immersed in matrigel. Aortic rings (6 per experiment) were treated with 0.1% DMSO (vehicle control/VC) or with 10 μM of Compound 4, Compound 12, Compound 15 or Compound 20. Sprouts from the perimeter of the aortic ring were counted and quantified as percentage of vehicle control (VC).

[2] = system: oxygen induced mouse model of retinopathy; test: Mouse oxygen-induced retinopathy model of neovascularisation; type: in vivo; conditions: 5 and 20 μM; intravitreal injection on P12, retinas analysed P17; mouse OIR; hydrochloride
Source text: The mouse oxygen-induced retinopathy model was used to test the anti-angiogenic activity of compounds 4, 12 and 18. Mouse pups (together with their dams) were placed in 75% oxygen from postnatal day (P) 7 to P12, causing a regression of their retinal blood vessels. On P12, pups were placed back in normoxia (21%) causing a regrowth of retinal blood vessels. Pups received an intravitreal injection on P12, of compound 4, 12, 18 or vehicle control—Hank's Balanced Salt Solution, coinciding with their return to normoxia. Pups were culled on P17 and enucleated. Eyes were fixed in 4% paraformaldehyde, washed and dissected to form retinal flatmounts. Flatmounts were stained with isolectin to visualise blood vessels and imaged. The central avascular area (lacking a network of blood vessels) was quantified using FIJI image analysis software.

[3] = system: intersegmental vasculature in zebrafish; test: Quantification of intersegmental vessel number in zebrafish; type: in vivo; conditions: 10 μM; zebrafish embryos treated 6 hpf to 48 hpf
Experimental: At 6 hours post fertilisation, 5 embryos per well were placed in 400 μL of embryo medium/0.1% DMSO and incubated with 10 μM compound at 28° C. on a 14 h light/10 h dark cycle. At 48 hpf larvae were manually dechorionated, euthanised, and fixed in 4% PFA at 4° C. overnight before analysis. The larvae were then washed with PBS and transferred to depression slides for observation under epi-fluorescence in an Olympus SZX16 fluorescent microscope. The number of intersegmental vessels was counted and the average number was graphed for each drug.
as §1, §2

Q: For `C/C(=C\c1ccccc1O)c1cnccn1.Cl` [Compound 12, (E)-2-[2-(Pyrazin-2-yl)prop-1-enyl]phenol hydrochloride], which “inhibition of developmental angiogenesis of the hyaloid vasculature (number of primary hyaloid vessels)” value ([1]; 10 μM, zebrafish larvae treated 48 hpf to 5 dpf, vs 0.1% DMSO control) is on record?
A: The value was “inhibit developmental angiogenesis of the zebrafish hyaloid vasculature in a statistically significant manner”.

Q: What about the “inhibition of developmental angiogenesis of the hyaloid vasculature (number of primary hyaloid vessels)” value ([1]; concentrations below 10 μM (range 1, 2.5, 5, 7.5 and 10 μM tested), zebrafish larvae 48 hpf to 5 dpf) of the same molecule?
A: The value was “inhibit developmental angiogenesis of the zebrafish hyaloid vasculature in a statistically significant manner”.

Q: What about the “angiogenesis (sprout formation) in aortic rings” value (mouse aortic ring) of the same molecule?
A: Its value is “block angiogenesis (sprout formation); also recorded: inhibit the formation of sprouts in a statistically significant manner”.

Q: What about the “retinal neovascularisation / revascularisation (central avascular area)” value [2] of the same molecule?
A: Its value is “significantly reduces retinal neovascularisation; also recorded: inhibits retinal revascularisation in a statistically significant manner”.

Q: And the “inhibition of developmental angiogenesis of intersegmental vessels (number of intersegmental vessels)” value [3]?
A: Its value is “inhibit developmental angiogenesis of zebrafish intersegmental vessels in a statistically significant manner”.
